The test system of assay [1] is human corneal myofibroblasts. In words: Reversal of TGFβ1-induced human corneal myofibroblasts on immobilized HC-HA/PTX3. It counts as cell-based. The conditions noted are these: day 4 and day 7. As for the experimental part: HCF were cultured in DMEM+10% FBS until 70% confluence. The cells were serum-starved for 1 day and treated with 10 ng/ml TGFβ1 for 3 days to induce myofibroblasts.
To reverse fibroblasts or myofibroblasts into keratocytes, fibroblasts or myofibroblasts were cultured on immobilized HC-HA/PTX3 in DMEM+10% FBS for 3 days using the samples from the cells on plastic and HA as the controls. Some of the cell cultures were extended to up to 7 days of culture to monitor the expression of α-SMA formation. […]
The samples of human corneal fibroblasts, myofibroblasts and corneal keratocytes were air-dried and fixed in 4% formaldehyde, pH 7.0, for 15 min at room temperature, rehydrated in PBS, incubated with 0.2% Triton X-100 for 15 min, and rinsed 3 times with PBS for 5 min each. […] The samples were then counterstained with Hoechst 33342 and analyzed in Zeiss LSM 700 confocal microscope (Thornhood, N.Y.). […]
Cell lysates were prepared in RIPA buffer and resolved on 4-15% (w/v) gradient acrylamide gels under denaturing and reducing conditions for Western blotting. […] Immunoreactive proteins were detected with Western Lighting Chemiluminescence (PerkinElmer, Waltham, Mass.).

For assay [2], the system named is human corneal fibroblasts (HCF). The experiment in a line: Reversal of HCF to keratocytes on immobilized HC-HA/PTX3 with or without SB431542 or AMD3100. Format: cell-based. The conditions noted are these: day 1 up to 7 days. As for the experimental part: A total of 86 human corneas from individuals aged 18-76 years and maintained at 4° C. in Optisol (Chiron Vision, Irvine, Calif.) for less than 7 days after death were obtained from the Florida Lions Eye Bank (Miami, Fla.) and handled according to the declaration of Helsinki. HCF were isolated and cultured. Briefly, the sheets of the epithelium and the endothelium were removed from corneas, the stroma sections were cut into cubes of approximately 1 mm3, incubated in 2 mg/ml collagenase for 16 h at 37° C., and then placed in a culture medium consisting of DMEM supplemented with 10% fetal bovine serum containing […]. The culture medium was refreshed twice a week. The cells cultured to passage 3 were used for all experiments. To reverse fibroblasts or myofibroblasts into keratocytes, fibroblasts or myofibroblasts were cultured on immobilized HC-HA/PTX3 in DMEM+10% FBS for 3 days using the samples from the cells on plastic and HA as the controls. Some of the cell cultures were extended to up to 7 days of culture to monitor the expression of α-SMA formation. Total RNAs were extracted using RNeasy Mini Kit (Qiagen) and reverse-transcribed using High Capacity Reverse Transcription Kit (Applied Biosystems). cDNA was amplified by real-time RT-PCR using specific primer-probe mixtures and DNA polymerase in Quant Studio 5 Real-time PCR System (Applied Biosystems). Real-time RT-PCR profile consisted of 10 min of initial activation at 95° C., followed by 40 cycles of 15 s denaturation at 95° C., and 1 min annealing and extension at 60° C. The genuine identity of each PCR product was confirmed by the size determination using 2% agarose gels followed by ethidium bromide staining together with PCR marker according to EC3 Imaging System (BioImaging System, Upland, Calif.). The samples of human corneal fibroblasts, myofibroblasts and corneal keratocytes were air-dried and fixed in 4% formaldehyde, pH 7.0, for 15 min at room temperature, rehydrated in PBS, incubated with 0.2% Triton X-100 for 15 min, and rinsed 3 times with PBS for 5 min each. […] After three washes with PBS, they were incubated with corresponding Alexa-Fluor-conjugated secondary IgG (all 1:100 dilution) for 60 min. The samples were then counterstained with Hoechst 33342 and analyzed in Zeiss LSM 700 confocal microscope (Thornhood, N.Y.). Corresponding mouse and rabbit sera were used as negative controls for primary monoclonal and polyclonal antibodies, respectively. Cell lysates were prepared in RIPA buffer and resolved on 4-15% (w/v) gradient acrylamide gels under denaturing and reducing conditions for Western blotting. The protein extracts were transferred to the nitrocellulose membrane, which was then blocked with 5% (w/v) fat-free milk in TBST [50 mM Tris-HCl, pH 7.5, 150 mM NaCl, 0.05% (v/v) Tween-20], followed by sequential incubation with the specific primary antibody against keratocan and its respective horseradish peroxidase (HRP)-conjugated secondary antibody using β-actin as the loading control. Immunoreactive proteins were detected with Western Lighting Chemiluminescence (PerkinElmer, Waltham, Mass.).

As to hyaluronic acid [HA], the “staining of α-SMA” value in assay [1] is on record as “retained their characteristic staining of α-SMA”. The “aggregation of HCF” value in assay [2] is reported as “formed some aggregates”.

The values above are taken from US20210386791A1, “METHODS OF CELLULAR REPROGRAMMING” (TissueTech, Inc., priority 2018, published 2021).
